Experiments:
Experiment in all cases: biochemical
Parameters in all cases: Eurofins recombinant human kinase profiling, remaining kinase activity as % of control, 10 uM ATP
Conditions in all cases: ATP 10 uM; read-out: %Ctrl@10 μM
[1] = target: T1, CHK1(h) (Homo sapiens, UniProt O14757)
T1 construct: gene CHEK1
Excerpt: (§1) To rapidly determine the biological target of YL-939, we first tested the activity of YL-939 against a panel of 401 recombinant human protein kinases by using the kinase profiling assay provided by Eurofins, since kinases are often the key components in various signal pathways[35],[36]. […] We then carried out affinity-based proteome profiling assay (ABPP) coupled with bioimaging to identify the biological target of YL-939 (Fig. 4A). To this end, we designed and synthesized a photoaffinity probe, YL-939-1 (Fig. 4A and Supplementary Fig. 5), which is YL-939 attached by a photo-crosslinker (L3) that contains a photo-reactive group diazirine and a clickable alkyne handle.

[2] = target: CDK3/cyclinE(h) (Homo sapiens, UniProt Q00526)
Chain of CDK3/cyclinE(h) (Q00526 whole entry): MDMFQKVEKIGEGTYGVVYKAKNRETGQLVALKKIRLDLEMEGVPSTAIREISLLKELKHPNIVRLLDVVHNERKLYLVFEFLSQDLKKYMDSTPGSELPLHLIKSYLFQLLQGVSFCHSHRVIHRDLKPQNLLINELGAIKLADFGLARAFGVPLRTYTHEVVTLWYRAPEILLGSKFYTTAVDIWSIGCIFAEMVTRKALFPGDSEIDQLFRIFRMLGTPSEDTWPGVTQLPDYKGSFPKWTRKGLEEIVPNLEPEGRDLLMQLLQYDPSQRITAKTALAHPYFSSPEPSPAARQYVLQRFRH
Chain of CDK3/cyclinE(h) (P24864 whole entry partner): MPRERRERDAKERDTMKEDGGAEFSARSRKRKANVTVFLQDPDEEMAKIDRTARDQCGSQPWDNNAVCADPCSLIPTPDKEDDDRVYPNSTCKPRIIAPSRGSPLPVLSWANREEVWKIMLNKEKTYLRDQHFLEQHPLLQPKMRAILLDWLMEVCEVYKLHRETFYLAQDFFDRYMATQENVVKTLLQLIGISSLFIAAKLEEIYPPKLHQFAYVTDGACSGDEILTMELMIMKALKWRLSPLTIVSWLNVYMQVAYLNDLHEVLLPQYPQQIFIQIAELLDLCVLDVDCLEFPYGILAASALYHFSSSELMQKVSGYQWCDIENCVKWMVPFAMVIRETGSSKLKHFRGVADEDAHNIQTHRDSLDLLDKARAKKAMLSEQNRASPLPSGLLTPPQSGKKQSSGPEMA
Excerpt: as §1

[3] = target: CDK2/cyclinA(h) (Homo sapiens, UniProt P24941)
Excerpt: as §1

[4] = target: BTK(h) (Homo sapiens, UniProt Q06187)
Excerpt: as §1

[5] = target: MARK1(h) (Homo sapiens, UniProt Q9P0L2)
Chain of MARK1(h) (Q9P0L2 whole entry): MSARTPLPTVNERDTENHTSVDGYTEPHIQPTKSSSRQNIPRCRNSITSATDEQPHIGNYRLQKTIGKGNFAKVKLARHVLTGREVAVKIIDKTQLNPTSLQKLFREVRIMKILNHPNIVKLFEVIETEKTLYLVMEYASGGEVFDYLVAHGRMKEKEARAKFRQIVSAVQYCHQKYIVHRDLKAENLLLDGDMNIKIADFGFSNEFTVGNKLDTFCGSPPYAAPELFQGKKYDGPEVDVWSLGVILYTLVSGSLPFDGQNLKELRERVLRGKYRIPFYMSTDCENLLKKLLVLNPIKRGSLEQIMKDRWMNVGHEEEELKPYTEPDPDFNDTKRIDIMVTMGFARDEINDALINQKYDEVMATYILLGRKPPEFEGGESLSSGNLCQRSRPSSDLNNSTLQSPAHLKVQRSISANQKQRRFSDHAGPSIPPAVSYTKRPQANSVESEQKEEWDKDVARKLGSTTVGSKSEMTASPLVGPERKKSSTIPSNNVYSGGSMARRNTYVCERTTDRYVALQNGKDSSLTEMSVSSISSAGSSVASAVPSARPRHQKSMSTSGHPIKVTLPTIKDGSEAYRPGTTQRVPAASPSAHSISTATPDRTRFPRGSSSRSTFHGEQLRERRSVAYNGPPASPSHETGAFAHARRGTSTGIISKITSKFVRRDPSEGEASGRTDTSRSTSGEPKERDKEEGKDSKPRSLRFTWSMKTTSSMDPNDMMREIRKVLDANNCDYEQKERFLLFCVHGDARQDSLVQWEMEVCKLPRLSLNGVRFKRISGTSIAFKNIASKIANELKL
Excerpt: as §1

[6] = target: Tec(h) activated (Homo sapiens, UniProt P42680)
Excerpt: as §1

[7] = target: T2, ALK4(h) (Homo sapiens, UniProt P36896)
T2 construct: gene ACVR1B
Excerpt: as §1

[8] = target: T3, PKCγ(h) (Homo sapiens, UniProt P05129)
T3 construct: gene PRKCG
Excerpt: as §1

[9] = target: T4, MRCKγ(h) (Homo sapiens, UniProt Q6DT37)
T4 construct: gene CDC42BPG
Excerpt: as §1

[10] = target: STK32A(h) (Homo sapiens, UniProt Q8WU08)
Chain of STK32A(h) (Q8WU08 whole entry): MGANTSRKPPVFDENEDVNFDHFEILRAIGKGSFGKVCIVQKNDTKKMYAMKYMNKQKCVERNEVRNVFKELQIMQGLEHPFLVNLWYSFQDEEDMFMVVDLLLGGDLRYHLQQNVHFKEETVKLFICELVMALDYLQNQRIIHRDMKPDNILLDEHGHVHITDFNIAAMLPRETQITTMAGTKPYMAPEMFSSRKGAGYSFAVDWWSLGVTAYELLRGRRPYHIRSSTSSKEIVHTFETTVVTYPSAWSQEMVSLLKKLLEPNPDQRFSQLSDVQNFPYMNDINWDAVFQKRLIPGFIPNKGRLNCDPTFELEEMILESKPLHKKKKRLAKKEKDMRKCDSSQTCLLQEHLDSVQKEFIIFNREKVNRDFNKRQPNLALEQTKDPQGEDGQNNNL
Excerpt: as §1

[11] = target: IRAK1(h) (Homo sapiens, UniProt P51617)
Chain of IRAK1(h) (P51617 whole entry): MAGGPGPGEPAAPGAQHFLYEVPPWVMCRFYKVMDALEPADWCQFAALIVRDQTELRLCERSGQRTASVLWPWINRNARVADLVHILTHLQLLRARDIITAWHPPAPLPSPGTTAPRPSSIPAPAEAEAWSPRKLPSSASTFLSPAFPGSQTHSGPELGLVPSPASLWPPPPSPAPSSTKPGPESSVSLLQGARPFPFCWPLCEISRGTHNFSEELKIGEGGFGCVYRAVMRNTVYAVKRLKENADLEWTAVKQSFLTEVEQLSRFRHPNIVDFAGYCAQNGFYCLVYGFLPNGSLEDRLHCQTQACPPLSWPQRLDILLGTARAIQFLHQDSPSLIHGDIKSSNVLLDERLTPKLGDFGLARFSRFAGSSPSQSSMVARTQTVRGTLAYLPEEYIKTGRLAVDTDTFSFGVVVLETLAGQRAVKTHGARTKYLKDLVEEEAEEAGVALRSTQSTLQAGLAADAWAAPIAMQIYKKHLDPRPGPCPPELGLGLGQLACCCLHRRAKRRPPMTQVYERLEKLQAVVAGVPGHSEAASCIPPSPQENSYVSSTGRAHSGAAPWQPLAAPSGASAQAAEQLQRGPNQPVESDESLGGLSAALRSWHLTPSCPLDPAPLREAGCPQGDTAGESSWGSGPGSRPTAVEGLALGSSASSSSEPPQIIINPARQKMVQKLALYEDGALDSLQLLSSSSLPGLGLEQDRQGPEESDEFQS
Excerpt: as §1

[12] = target: CDKL1(h) (Homo sapiens, UniProt Q00532)
Chain of CDKL1(h) (Q00532 whole entry): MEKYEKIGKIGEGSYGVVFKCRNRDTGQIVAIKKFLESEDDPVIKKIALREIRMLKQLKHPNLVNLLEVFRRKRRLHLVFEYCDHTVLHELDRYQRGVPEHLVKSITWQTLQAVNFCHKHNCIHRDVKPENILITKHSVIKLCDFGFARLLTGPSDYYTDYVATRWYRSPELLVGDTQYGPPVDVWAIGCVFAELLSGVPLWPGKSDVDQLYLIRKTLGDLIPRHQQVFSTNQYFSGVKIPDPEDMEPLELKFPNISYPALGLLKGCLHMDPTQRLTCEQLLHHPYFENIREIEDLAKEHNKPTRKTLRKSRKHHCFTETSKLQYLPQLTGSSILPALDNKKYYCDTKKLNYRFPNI
Excerpt: as §1

[13] = target: CDK2/cyclinE(h) (Homo sapiens, UniProt P24941)
Excerpt: as §1

[14] = target: TBK1(h) (Homo sapiens, UniProt Q9UHD2)
Excerpt: as §1

[15] = target: WNK4(h) (Homo sapiens, UniProt Q96J92)
Excerpt: as §1

[16] = target: T5, SAPK2b(h) (Homo sapiens, UniProt Q15759)
T5 construct: gene MAPK11
Excerpt: as §1

[17] = target: FGFR1(h) (Homo sapiens, UniProt P11362)
Chain of FGFR1(h) (P11362 whole entry): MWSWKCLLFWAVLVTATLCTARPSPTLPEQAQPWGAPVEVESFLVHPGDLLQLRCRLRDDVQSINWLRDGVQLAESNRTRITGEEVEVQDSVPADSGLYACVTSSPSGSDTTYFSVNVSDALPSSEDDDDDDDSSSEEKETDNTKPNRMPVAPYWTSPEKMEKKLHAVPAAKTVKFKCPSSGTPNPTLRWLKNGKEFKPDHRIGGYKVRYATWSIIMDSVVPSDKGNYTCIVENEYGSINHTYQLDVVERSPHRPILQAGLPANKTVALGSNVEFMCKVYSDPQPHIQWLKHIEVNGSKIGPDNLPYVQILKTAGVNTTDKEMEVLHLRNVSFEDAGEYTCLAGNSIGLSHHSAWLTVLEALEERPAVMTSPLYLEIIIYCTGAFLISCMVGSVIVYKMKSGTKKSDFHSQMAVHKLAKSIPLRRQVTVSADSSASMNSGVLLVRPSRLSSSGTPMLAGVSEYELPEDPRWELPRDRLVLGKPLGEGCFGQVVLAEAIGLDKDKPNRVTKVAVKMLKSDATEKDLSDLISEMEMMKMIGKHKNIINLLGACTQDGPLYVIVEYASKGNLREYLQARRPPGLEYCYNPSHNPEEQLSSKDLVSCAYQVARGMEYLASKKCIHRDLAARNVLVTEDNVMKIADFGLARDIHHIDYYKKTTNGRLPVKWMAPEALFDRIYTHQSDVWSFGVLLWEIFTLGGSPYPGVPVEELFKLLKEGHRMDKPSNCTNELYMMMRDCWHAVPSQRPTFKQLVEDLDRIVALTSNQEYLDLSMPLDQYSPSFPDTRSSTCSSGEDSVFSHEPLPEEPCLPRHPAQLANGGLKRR
Excerpt: as §1

[18] = target: mTOR/FKBP12(h) (Homo sapiens, UniProt P42345)
Excerpt: as §1

[19] = target: T6, PDK1(h) (Homo sapiens, UniProt O15530)
T6 construct: gene PDPK1
Excerpt: as §1

[20] = target: T7, MLK2(h) (Homo sapiens, UniProt Q02779)
T7 construct: gene MAP3K10
Excerpt: as §1

[21] = target: EphA8(h) (Homo sapiens, UniProt P29322)
Excerpt: as §1

[22] = target: NEK9(h) (Homo sapiens, UniProt Q8TD19)
Excerpt: as §1

[23] = target: T8, ZAP-70(h) (Homo sapiens, UniProt P43403)
T8 construct: gene ZAP70
Excerpt: as §1

T1 sequence (O14757 whole entry): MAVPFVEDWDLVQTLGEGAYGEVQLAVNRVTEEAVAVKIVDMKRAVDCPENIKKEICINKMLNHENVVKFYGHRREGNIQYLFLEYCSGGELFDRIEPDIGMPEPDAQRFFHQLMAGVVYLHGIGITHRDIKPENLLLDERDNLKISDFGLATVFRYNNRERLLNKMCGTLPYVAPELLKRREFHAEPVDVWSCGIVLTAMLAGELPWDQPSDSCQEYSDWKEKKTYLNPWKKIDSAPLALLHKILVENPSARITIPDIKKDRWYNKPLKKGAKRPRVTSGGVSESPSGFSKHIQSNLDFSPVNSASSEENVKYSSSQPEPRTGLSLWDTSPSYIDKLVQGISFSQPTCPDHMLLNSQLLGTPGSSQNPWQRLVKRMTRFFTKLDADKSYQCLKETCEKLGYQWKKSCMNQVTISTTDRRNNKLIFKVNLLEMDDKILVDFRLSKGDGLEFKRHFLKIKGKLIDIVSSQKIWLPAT

What does the source list for `C1=C(c2nc(-c3cnn(C4CCNCC4)c3)cn3cc(-c4ccccc4)nc23)CCOC1` [YL-939]?
remaining activity at 10 µM [1]: 98%; remaining activity at 10 µM [2]: 102%; remaining activity at 10 µM [3]: 95%; remaining activity at 10 µM [4]: 83%; remaining activity at 10 µM [5]: 95%; remaining activity at 10 µM [6]: 70%; remaining activity at 10 µM [7]: 117%; remaining activity at 10 µM [8]: 96%; remaining activity at 10 µM [9]: 95%; remaining activity at 10 µM [10]: 111%; remaining activity at 10 µM [11]: 118%; remaining activity at 10 µM [12]: 96%; remaining activity at 10 µM [13]: 85%; remaining activity at 10 µM [14]: 90%; remaining activity at 10 µM [15]: 102%; remaining activity at 10 µM [16]: 84%; remaining activity at 10 µM [17]: 115%; remaining activity at 10 µM [18]: 88%; remaining activity at 10 µM [19]: 127%; remaining activity at 10 µM [20]: 82%; remaining activity at 10 µM [21]: 76%; remaining activity at 10 µM [22]: 99%; remaining activity at 10 µM [23]: 97%

Source: article PMC9719519, “Non-classical ferroptosis inhibition by a small molecule targeting PHB2” (Nature Communications, 2022)
